Results on 23 compounds are retold here after patent publication US20060063759A1, “Tricyclic steroid hormone nuclear receptor modulators” (priority 2002, published 2006).

The Ki is the equilibrium dissociation constant of an inhibitor or competing ligand from its target. The term melting point denotes the temperature, or range, at which the solid turns liquid.

One series concerns the target T1, human MR (Homo sapiens, UniProt P08235).
T1 construct: The full length human MR gene is cloned from a human kidney or human brain cDNA library; His tag from the pAcHLT vector (own knowledge); made in house; host or cells: Sf9 insect cells (baculovirus, pAcHLT transfer vector)
T1 sequence (P08235 1-984): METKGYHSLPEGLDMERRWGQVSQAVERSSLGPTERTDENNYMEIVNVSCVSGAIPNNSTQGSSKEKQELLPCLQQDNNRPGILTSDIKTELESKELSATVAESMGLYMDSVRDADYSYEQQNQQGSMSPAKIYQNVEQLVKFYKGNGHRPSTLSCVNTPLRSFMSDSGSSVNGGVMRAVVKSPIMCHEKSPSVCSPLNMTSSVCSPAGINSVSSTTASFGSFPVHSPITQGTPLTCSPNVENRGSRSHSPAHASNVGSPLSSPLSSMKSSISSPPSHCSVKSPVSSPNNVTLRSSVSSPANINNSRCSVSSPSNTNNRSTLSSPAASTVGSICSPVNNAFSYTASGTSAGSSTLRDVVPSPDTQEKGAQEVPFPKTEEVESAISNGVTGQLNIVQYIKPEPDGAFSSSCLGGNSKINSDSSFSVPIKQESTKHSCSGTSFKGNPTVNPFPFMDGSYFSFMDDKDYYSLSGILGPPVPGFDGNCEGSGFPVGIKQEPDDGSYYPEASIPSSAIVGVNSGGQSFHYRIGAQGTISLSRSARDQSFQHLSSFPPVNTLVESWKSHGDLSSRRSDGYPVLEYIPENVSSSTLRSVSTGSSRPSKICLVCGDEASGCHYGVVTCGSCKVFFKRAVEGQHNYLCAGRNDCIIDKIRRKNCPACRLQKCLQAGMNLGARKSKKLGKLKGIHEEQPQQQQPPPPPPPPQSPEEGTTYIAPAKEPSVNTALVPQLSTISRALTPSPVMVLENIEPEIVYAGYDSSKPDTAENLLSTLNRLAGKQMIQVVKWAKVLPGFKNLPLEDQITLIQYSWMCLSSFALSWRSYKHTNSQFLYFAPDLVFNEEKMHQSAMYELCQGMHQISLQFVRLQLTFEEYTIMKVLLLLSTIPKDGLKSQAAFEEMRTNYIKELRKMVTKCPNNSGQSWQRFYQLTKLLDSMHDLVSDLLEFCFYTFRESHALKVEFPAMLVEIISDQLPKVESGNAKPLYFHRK
In words: Mineralocorticoid Receptor Binding Assay ([3H]-aldosterone). The note with it: [3H]-aldosterone binding, human MR expressed in Sf9 cells; read-out: MR Ki. An outline of the steps: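 Lysate supernatant of Sf9 cells expressing full-length human MR (20-25 μg protein) was incubated with 0.5 nM [3H]-aldosterone and test compound in molybdate/Tris/phosphate/glycerol buffer, pH 7.5, ~16 h at 4 °C. Bound ligand was filtered and counted by scintillation; IC50 is the concentration halving [3H]-aldosterone binding.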

The next series addresses T2, glucocorticoid receptor (Homo sapiens, UniProt P04150).
T2 construct: containing 50-200 ug of A549 cell extract and 1.86 nM [^3H]-dexamethasone; host or cells: A549 human lung epithelial cells (sonicated cell extract)
T2 sequence (P04150 1-777): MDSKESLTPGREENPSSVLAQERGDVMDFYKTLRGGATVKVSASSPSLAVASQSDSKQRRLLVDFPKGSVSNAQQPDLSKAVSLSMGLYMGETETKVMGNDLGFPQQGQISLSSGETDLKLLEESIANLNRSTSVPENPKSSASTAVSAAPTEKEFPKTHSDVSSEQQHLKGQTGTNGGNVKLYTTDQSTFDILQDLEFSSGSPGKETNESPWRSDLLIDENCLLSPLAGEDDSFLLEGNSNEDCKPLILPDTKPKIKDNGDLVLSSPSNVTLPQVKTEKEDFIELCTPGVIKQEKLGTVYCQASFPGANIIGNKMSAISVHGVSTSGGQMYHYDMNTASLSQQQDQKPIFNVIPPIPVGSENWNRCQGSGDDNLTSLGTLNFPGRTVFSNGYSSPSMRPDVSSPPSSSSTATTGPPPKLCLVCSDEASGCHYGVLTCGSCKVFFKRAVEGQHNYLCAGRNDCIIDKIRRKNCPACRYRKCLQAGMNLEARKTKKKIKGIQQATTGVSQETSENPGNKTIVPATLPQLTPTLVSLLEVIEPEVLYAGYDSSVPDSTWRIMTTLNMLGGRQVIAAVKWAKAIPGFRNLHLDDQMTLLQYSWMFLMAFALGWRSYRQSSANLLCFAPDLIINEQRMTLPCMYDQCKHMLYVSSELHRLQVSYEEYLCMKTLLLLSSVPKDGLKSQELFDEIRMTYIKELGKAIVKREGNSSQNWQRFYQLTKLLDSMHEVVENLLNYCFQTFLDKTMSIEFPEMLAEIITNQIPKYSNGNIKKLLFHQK
In words: Glucocorticoid Receptor Binding Assay ([3H]-dexamethasone, A549 cell extract). The following applies: [3H]-dexamethasone binding, read-out: GR Ki. An outline of the steps:
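A549 cell extract (50–200 ug) incubated with 1.86 nM [3H]-dexamethasone and test compound for 16 h at 4 °C in Tris-HCl pH 7.2 buffer with glycerol and molybdate. Unbound radioligand removed by dextran-coated charcoal, then supernatant bound counts measured by scintillation.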

`CCCNS(=O)(=O)c1ccccc1C=C1c2ccccc2CCc2ccccc21` [Example 6, 2-(10,11-Dihydro-benzo[a,d]cyclohepten-5-ylidenemethyl)-N-propyl-benzenesulfonamide] had a melting point of 155.6 °C. For the same compound, on human MR, the Ki was below 0.5 µM. For the same compound, the Ki on glucocorticoid receptor is below 0.5 µM.
In turn, `Nc1ccccc1C=C1c2ccccc2CCc2ccccc21` [Example 87, 2-(10,11-Dihydro-dibenzo[a,d]cyclohepten-5-ylidenemethyl)-phenylamine] showed a melting point of 145.2 °C. Moreover, the inhibition constant (Ki) on human MR is below 0.5 µM. For the same compound, the Ki at glucocorticoid receptor is below 0.5 µM.
In turn, `O=S(=O)(Nc1cccc(C=C2c3ccccc3CCc3ccccc32)c1)c1ccccc1` [Example 93, N-[3-(10,11-Dihydrodibenzo[a,d]cyclohepten-5-ylidenemethyl)-phenyl]-benzenesulfonamide] returned a melting point of 121.9 °C. At human MR, the Ki is below 0.5 µM. Moreover, on glucocorticoid receptor, the inhibition constant Ki was below 0.5 µM.
As to `Nc1cccc(C=C2c3ccccc3CCc3ccccc32)c1` [Example 86, 3-(10,11-Dihydro-dibenzo[a,d]cyclohepten-5-ylidenemethyl)-phenylamine], the melting point turned out to be 204.3 °C. The Ki on human MR was below 0.5 µM. At glucocorticoid receptor, the Ki was below 0.5 µM.
In turn, `O=Cc1ccc(C=C2c3ccccc3CCc3ccccc32)cc1` [Example 68, 4-(10,11-Dihydro-dibenzo[a,d]cyclohepten-5-ylidenemethyl)-benzaldehyde] returned a melting point of 106.4 °C. Also, on human MR, the inhibition constant (Ki) is below 0.5 µM. For the same compound, the Ki at glucocorticoid receptor was below 0.5 µM.
Compound `CNS(=O)(=O)c1cccc(C=C2c3ccccc3CCc3ccccc32)c1` [Example 1, 3-(10,11-Dihydro-dibenzo[a,d]cyclohepten-5-ylidenemethyl)-N-methyl-benzenesulfonamide] returned a melting point of 153.9 °C. Besides, the Ki at human MR was below 0.5 µM. For the same compound, on glucocorticoid receptor, the Ki was below 0.5 µM.
On to `Cn1cnc(S(=O)(=O)Nc2cccc(C=C3c4ccccc4CCc4ccccc43)c2)c1` [Example 95, 1-Methyl-1H-imidazole-4-sulfonic acid [3-(10,11-dihydro-dibenzo[a,d]cyclohepten-5-ylidenemethyl)-phenyl]-amide], for which the melting point turned out to be 257 °C. Moreover, at human MR, the Ki is below 0.5 µM. For the same compound, the Ki on glucocorticoid receptor is below 1 µM.
The corresponding values for `CS(=O)(=O)Nc1cc(C=C2c3ccccc3CCc3ccccc32)ccc1O` [Example 64, N-[5-(10,11-Dihydro-dibenzo[a,d]cyclohepten-5-ylidenemethyl)-2-hydroxy-phenyl]-methanesulfonamide] are 122.6 °C, below 0.5 µM and below 0.5 µM.
Compound `CNS(=O)(=O)c1cc(C)ccc1C=C1c2ccccc2CCc2ccccc21` [Example 2, 2-(10,11-Dihydro-dibenzo[a,d]cyclohepten-5-ylidenemethyl)-5,N-dimethyl-benzenesulfonamide] yielded a melting point of 174.9 °C. Also, the Ki on human MR is below 0.5 µM. Also, the Ki on glucocorticoid receptor was below 0.5 µM.
The compound `COc1ccccc1C=C1c2ccccc2CCc2ccccc21` [Example 31, 5-(2-Methoxy-benzylidene)-10,11-dihydro-5H-dibenzo-[a,d]cycloheptene] came in with a melting point of 129.3 °C. The Ki on human MR was below 0.5 µM. At glucocorticoid receptor, the Ki is below 10 µM.
With `Cc1ccc(C=C2c3ccccc3CCc3ccccc32)c(S(=O)(=O)N(C)C)c1` [Example 19, 2-(10,11-Dihydro-dibenzo[a,d]cyclohepten-5-ylidenemethyl)-5,N,N-trimethyl-benzenesulfonamide], the melting point was 186.6 °C.
Same read-out and setting: the same measure for `O=S(=O)(c1ccccc1C=C1c2ccccc2CCc2ccccc21)N1CCOCC1` [Example 8, 4-[2-(10,11-Dihydro-dibenzo[a,d]cyclohepten-5-ylidenemethyl)-benzenesulfonyl]-morpholine]: 139.3 °C.
The same measure, in the same setting: under `COc1ccc(C=C2c3ccccc3CCc3ccccc32)cc1Br` [Example 34, 5-(3-Bromo-4-methoxy-benzylidene)-10,11-dihydro-5H-dibenzo[a,d]cycloheptene] stands 140.7 °C; under `Cc1cc(S(=O)(=O)N(C)C)c(C=C2c3ccccc3CCc3ccccc32)cc1Cl` [Example 10, 4-Chloro-2-(10,11-dihydro-dibenzo[a,d]cyclohepten-5-ylidenemethyl)-5,N,N-trimethylbenzenesulfonamide], 199.9 °C.
On the same count and under the same terms, the same measure for `Cc1ccc(C=C2c3ccccc3CCc3ccccc32)c(S(=O)(=O)NC2CC2)c1` [Example 14, N-Cyclopropyl-2-(10,11-dihydro-dibenzo[a,d]cyclohepten-5-ylidenemethyl)-5-methyl-benzenesulfonamide]: 160.8 °C; for `CN(c1cccc(C=C2c3ccccc3CCc3ccccc32)c1)S(C)(=O)=O` [Example 124, N-[3-(10,11-Dihydro-dibenzo[a,d]cyclohepten-5-ylidenemethyl)-phenyl]-N-methyl-methanesulfonamide]: 124.2 °C.
Compound `Brc1cccc(C=C2c3ccccc3CCc3ccccc32)c1` [Example 28, 5-(3-Bromo-benzylidene)-10,11-dihydro-5H-dibenzo-[a,d]cycloheptene] yielded a melting point of 104.7 °C.
Still for that read-out and setting: the same measure for `COc1ccc(C=C2c3ccccc3CCc3ccccc32)cc1` [Example 33, 5-(4-Methoxy-benzylidene)-10,11-dihydro-5H-dibenzo-[a,d]cycloheptene]: 116.8 °C; for `CN(C)S(=O)(=O)c1cccc(C=C2c3ccccc3CCc3ccccc32)c1` [Example 25, 3-(10,11-Dihydro-dibenzo[a,d]cyclohepten-5-ylidenemethyl)-N,N-dimethyl-benzenesulfonamide]: 167.3 °C.
Still for that read-out and setting: under `FC(F)Oc1ccccc1C=C1c2ccccc2CCc2ccccc21` [Example 66, 5-(2-Difluoromethoxy-benzylidene)-10,11-dihydro-5H-dibenzo[a,d]cycloheptene] stands 81.1 °C; under `Cc1ccc(C=C2c3ccccc3CCc3ccccc32)c(S(=O)(=O)Nc2ccccc2)c1` [Example 13], 220.4 °C.
Turning to `Cc1ccc(C=C2c3ccccc3CCc3ccccc32)c(S(=O)(=O)NCC(F)(F)F)c1` [Example 23, 2-(10,11-Dihydro-dibenzo[a,d]cyclohepten-5-ylidenemethyl)-5-methyl-N-(2,2,2-trifluoro-ethyl)-benzenesulfonamide], the melting point is 100.7 °C.
The same measure, in the same setting: under `COc1ccc(C=C2c3ccccc3CCc3ccccc32)cc1N` [Example 89, 5-(10,11-Dihydro-dibenzo[a,d]cyclohepten-5-ylidenemethyl)-2-methoxy-phenylamine] stands 62.7 °C.
